This is an account of results in patent US10703751B2, “Amino-imidazopyridine derivatives as Janus kinase inhibitors and pharmaceutical use thereof” (LEO Pharma A/S, priority 2017, dated 2020).

Converted amounts (≈) assume the structure as drawn. Like-named read-outs stand apart in the source and are kept apart here. A value given as a limit tells only on which side of the number the result lay.

Data set [1] deals with JAK1 (Homo sapiens (Human), UniProt P23458). The data set is described as follows: JAK1 kinase assay (HTRF). The format is biochemical. The note with it: for JAK2/JAK1 ratio / JAK3/JAK1 ratio: ratio of the respective EC50. As for the experimental part: (§1) Human baculovirus-expressed Janus kinase (JAK) 1, 2, 3 and tyrosin kinase (TYK) 2 were purchased from Carna Biosciences, Inc (#08-144, -045, -046, -147 resp.). All four purified enzymes contain only the catalytic domain. JAK1 (aa 850-1154) and TYK2 (aa 871-1187) are expressed with an N-terminally fused GST-tag, and JAK2 and JAK3 with an N-terminally fused His-tag. Inhibition of phosphorylation of a synthetic peptide was measured in an HTRF-based assay (CisBio #62TKOPEC). First, 75 nL of test compound solution (100% DMSO) was added to a white shallow 384-well plate (NUNC #264706) using a Labcyte ECHO 550 liquid handler. Thereafter, 1 μL of compound dilution buffer (50 mM HEPES, 0.05% bovine serum albumin) and 2 μL of TK solution (TK substrate-biotin in kinase buffer [1× enzymatic buffer from HTRFKinEASE TK kit, 1 mM DTT]) was added. Then, 5 μL kinase-ATP mix (prepared in kinase buffer) was added to the wells and the plates were incubated at RT for 20 (JAK2, 3 and TYK2) to 40 (JAK1) min. For all four kinases a concentration of ATP that corresponded to the Km for ATP was used. The final concentrations of buffers, substrate, kinase and ATP were: JAK1: 50 mM Hepes buffer pH 7.0, 0.01% BSA, 10 mM MgCl2, 1 mM DTT, 7 μM ATP, 50 nM SEB, 1 μM TK Substrate-Biotin and 5 ng/well JAK1; JAK2: 50 mM Hepes buffer pH 7.0, 0.01% BSA, 5 mM MgCl2, 1 mM DTT, 4 μM ATP, 1 μM TK Substrate-Biotin and 0.1 ng/well JAK2; JAK3: 50 mM Hepes buffer pH 7.0, 0.01% BSA, 5 mM MgCl2, 1 mM DTT, 2 μM ATP, 1 μM TK Substrate-Biotin and 0.3 ng/well JAK3; TYK2: 50 mM Hepes buffer pH 7.0, 0.01% BSA, 5 mM MgCl2, 1 mM DTT, 13 μM ATP, 50 nM SEB, 1 μM TK Substrate-Biotin and 0.8 ng/well TYK2. Thereafter, the kinase reaction was stopped by adding 4 μL detection mix (final concentrations: 50 mM Hepes buffer pH 7.0, 0.01% BSA, 0.8 M KF, 20 mM EDTA, 42 nM Streptavidin-XL665 and 1:400 STK Ab Cryptate) and the plates were incubated overnight in the dark. A PerkinElmer Envision reader was used to quantify the HTRF signal using the following filters; 320 nm excitation filter, 665 nm emission filter and a 615 nm 2nd emission filter. A ratio ((665/615)×10^4) was calculated for each well.
Chain of JAK1 (P23458 850-1154): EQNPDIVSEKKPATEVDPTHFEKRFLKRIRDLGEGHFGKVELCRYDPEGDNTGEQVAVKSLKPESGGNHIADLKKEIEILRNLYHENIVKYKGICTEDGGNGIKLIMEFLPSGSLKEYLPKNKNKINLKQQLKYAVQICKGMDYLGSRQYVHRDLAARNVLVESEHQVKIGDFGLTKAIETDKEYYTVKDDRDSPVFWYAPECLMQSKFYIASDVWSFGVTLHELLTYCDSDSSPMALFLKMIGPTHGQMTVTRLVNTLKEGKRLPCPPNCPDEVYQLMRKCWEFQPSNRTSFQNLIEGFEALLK
Background: TR-FRET usually uses a lanthanide donor and a delayed reading to cut background.

For data set [2], the target named is JAK2 (Homo sapiens (Human), UniProt O60674). Description: JAK2 kinase assay (HTRF). The format is biochemical. The note with it: ATP at Km (4 μM). As to the method: as §1
Chain of JAK2 (O60674 849-1124): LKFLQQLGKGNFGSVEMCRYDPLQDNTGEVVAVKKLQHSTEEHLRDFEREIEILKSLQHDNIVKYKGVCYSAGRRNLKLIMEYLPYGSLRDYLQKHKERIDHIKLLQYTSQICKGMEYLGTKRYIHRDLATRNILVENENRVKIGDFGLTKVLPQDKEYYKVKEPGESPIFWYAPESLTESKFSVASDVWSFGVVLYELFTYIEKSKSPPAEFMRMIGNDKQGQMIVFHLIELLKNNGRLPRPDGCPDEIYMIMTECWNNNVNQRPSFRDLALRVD
Data set [3] has as its target JAK3 (Homo sapiens (Human), UniProt P52333). The data set is described as follows: JAK3 kinase assay (HTRF). The format is biochemical. As for the experimental part: as §1
In data set [4] the target is TYK2 (Homo sapiens (Human), UniProt P29597). The data set is described as follows: TYK2 kinase assay (HTRF). The format is biochemical. As to the method: as §1
Chain of TYK2 (P29597 871-1187): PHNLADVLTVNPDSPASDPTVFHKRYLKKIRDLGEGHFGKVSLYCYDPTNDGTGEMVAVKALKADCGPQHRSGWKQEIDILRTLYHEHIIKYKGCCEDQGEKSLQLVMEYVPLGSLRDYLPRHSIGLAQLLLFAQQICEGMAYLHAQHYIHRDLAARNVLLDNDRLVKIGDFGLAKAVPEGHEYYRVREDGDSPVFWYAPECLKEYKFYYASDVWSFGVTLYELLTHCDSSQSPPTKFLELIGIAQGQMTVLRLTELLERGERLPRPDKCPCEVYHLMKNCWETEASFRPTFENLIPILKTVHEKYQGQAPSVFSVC
Data set [5] relates to STAT5 irfl-bla TF1 cells. Description: STAT5 assay (EPO stimulated reporter cells). The class given is cell-based. The note with it: Homo sapiens, TF-1; erythropoietin (EPO) 10 ng/mL. As to the method:
Twenty-five μL of a STAT5 irfl-bla TF1 (Invitrogen # K1219) cell suspension was seeded with a density of about 10,000 cells/well in 384-well Black View-plates (PerkinElmer #6007460) with clear bottom in assay medium (Opti-MEM (Invitrogen #11058-021)+0.5% heat inactivated fetal bovine Serum (Invitrogen #10082-147)+1% non-essential amino acids (Invitrogen #11140-050)+1% sodium pyruvate (Invitrogen #11360-070)+1% penicillin/streptomycin (Invitrogen #15140-122)). The cell plates were incubated overnight in a humidified 37° C. air/CO2 (95%/5%) incubator. The following day, 125 nL of solutions of test compounds and reference compounds were transferred to cell plates using the Labcyte Echo 550 liquid handler. The plates were then incubated for 1 h in a humidified 37° C. air/CO2 (95%/5%) incubator. Hereafter recombinant human erythropoietin (EPO) (Invitrogen # PHC9634) was added to the plates also using the Labcyte Echo 550 to a final concentration of 10 ng/mL. The cells were then incubated for 4½-5 h in a humidified 37° C. air/CO2 (95%/5%) incubator. 8 μL of LiveBLAzer substrate mixture (Invitrogen # K1095) were then added to the assay plates, which were then incubated overnight at RT. Fluorescence was then measured: Excitation: 405 nm; Emission: 460 nm (green channel), Emission: 535 nm (blue channel). Background was subtracted in both emission channels and the ratio 460/535 nm was calculated for each well.

Data set [6] deals with CYP1A2 (Homo sapiens (Human), UniProt P05177). The data set is described as follows: Reversible CYP inhibition, 1A2. The format is in vitro ADME. As to the method: (§2) Reversible CYP inhibition, time dependent CYP inhibition (TDI) and CYP induction was tested at Cyprotex PLC according to authority guidance.
Chain of CYP1A2 (P05177 whole entry): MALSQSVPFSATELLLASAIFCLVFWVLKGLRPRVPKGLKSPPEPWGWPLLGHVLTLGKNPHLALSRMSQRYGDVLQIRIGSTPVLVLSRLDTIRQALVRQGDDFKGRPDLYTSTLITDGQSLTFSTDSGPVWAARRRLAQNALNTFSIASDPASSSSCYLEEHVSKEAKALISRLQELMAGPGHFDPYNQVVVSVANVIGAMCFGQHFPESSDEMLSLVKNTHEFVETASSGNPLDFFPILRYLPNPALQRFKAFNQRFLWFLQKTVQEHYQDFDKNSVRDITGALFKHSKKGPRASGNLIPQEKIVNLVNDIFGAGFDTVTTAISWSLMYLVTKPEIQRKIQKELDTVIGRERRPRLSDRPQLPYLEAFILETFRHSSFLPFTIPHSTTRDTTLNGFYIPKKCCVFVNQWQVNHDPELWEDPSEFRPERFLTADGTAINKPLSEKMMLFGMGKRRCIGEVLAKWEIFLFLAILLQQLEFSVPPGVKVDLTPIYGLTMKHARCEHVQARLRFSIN
Data set [7] has as its target CYP2C9 (Homo sapiens (Human), UniProt P11712). The data set is described as follows: Reversible CYP inhibition, 2C9. The format is in vitro ADME. The following applies: up to 50 μM for Example 3, up to 25 μM for Examples 644 and 641. As for the experimental part:
as §2

In data set [8] the target is CYP2D6 (Homo sapiens (Human), UniProt P10635). The data set is described as follows: Reversible CYP inhibition, 2D6. The note with it: up to 50 μM for Example 3, up to 25 μM for Examples 644 and 641. The format is in vitro ADME. As to the method:
as §2

The target in data set [9] is CYP3A4 (Homo sapiens (Human), UniProt P08684). Description: Reversible CYP inhibition, 3A4. The format is in vitro ADME. The following applies: for IC50: up to 50 μM for Example 3, up to 25 μM for Examples 644 and 641. As to the method: as §2
Chain of CYP3A4 (P08684 whole entry): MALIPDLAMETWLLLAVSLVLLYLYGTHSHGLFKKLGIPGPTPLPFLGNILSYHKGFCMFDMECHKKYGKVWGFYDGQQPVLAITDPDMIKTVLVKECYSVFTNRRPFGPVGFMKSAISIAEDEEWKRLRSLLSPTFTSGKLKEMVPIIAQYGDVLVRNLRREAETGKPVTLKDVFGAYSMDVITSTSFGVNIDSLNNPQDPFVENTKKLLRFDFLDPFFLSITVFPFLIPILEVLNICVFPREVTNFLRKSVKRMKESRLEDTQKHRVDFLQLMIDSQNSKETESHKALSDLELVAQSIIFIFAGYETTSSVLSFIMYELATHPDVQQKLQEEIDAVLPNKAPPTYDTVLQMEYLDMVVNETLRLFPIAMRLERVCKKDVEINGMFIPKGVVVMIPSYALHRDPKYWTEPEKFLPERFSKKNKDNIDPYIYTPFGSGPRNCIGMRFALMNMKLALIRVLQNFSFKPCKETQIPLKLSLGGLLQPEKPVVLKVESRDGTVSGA
For data set [10], the system named is CYP3A4 gene expression. Description: CYP induction, CYP3A4 mRNA expression. The format is in vitro ADME. As for the experimental part:
as §2
Induction of CYP1A2, CYP2B6 and CYP3A4 gene expression can serve as sensitive representative endpoints for activation of aryl hydrocarbon receptor (AhR), […], respectively. Induction of these nuclear receptors was assessed by measuring the increase in mRNA encoding for […], respectively, at relevant concentrations.
A >2-fold shift indicate CYP Induction.

Data set [11] is described as follows: Aqueous solubility of crystalline material. The format is physicochemical. The note with it: aqueous medium, aqueous buffer, thermodynamic from solid. As for the experimental part: The aqueous solubility of crystalline Example 3, Example 644 and 641 of WO2011086053 at different pH's was evaluated.
[12] abbreviates: reversible, up to 50 μM for Example 3, up to 25 μM for Examples 644 and 641, read-out: 1A2 IC50.

Chain of CYP2D6 (P10635 whole entry): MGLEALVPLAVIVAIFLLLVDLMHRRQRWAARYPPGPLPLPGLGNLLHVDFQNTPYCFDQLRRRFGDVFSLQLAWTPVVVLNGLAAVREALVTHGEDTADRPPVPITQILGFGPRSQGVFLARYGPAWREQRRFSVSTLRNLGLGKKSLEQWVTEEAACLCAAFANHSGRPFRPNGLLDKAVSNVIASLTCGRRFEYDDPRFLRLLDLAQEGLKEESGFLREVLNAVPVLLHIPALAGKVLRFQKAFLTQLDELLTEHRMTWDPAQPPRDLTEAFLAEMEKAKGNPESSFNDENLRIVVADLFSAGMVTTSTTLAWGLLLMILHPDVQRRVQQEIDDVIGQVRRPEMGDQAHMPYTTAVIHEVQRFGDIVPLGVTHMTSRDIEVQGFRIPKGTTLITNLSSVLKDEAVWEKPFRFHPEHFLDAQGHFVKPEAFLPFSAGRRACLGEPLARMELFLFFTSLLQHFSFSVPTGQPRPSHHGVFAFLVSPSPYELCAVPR
Chain of CYP2C9 (P11712 whole entry): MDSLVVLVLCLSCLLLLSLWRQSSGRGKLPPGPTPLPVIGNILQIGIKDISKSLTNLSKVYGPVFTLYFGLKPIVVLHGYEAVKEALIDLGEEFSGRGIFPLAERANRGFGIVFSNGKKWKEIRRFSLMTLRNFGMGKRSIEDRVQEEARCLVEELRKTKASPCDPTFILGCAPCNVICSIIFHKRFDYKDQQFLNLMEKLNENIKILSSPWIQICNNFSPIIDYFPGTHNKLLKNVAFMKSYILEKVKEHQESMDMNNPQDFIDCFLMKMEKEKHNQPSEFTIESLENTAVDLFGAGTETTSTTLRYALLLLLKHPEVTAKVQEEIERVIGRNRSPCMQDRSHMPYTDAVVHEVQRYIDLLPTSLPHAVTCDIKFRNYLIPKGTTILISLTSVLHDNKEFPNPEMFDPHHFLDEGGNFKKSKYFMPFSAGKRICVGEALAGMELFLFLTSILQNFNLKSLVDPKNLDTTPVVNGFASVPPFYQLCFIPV
Chain of JAK3 (P52333 822-1111): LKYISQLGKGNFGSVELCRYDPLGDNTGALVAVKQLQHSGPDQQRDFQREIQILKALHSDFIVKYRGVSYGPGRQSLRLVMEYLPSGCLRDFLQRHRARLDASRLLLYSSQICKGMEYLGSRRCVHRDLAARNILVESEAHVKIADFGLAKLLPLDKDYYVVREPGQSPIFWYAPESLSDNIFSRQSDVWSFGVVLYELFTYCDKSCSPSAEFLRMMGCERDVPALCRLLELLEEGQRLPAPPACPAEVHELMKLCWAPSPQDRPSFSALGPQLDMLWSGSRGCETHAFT

Turning to `CNc1cc2c(cn1)nc([C@@H](C)O)n2[C@H]1CC[C@H](CC#N)CC1` [Example 3, trans-2-[4-[2-[(1R)-1-Hydroxyethyl]-6-(methylamino)imidazo[4,5-c]pyridin-1-yl]cyclohexyl]acetonitrile], the concentration for a half-maximal effect (EC50) was found to be 3.48 nM in data set [1] (ATP at Km (7 μM)); 171 nM in [2]; 1700 nM in data set [3] (ATP at Km (2 μM)); 32 nM in data set [4] (ATP at Km (13 μM)); 6.42 µM in data set [5]. The JAK2/JAK1 ratio in [1] was 51. In data set [1], the JAK3/JAK1 ratio is 489. Further, the half-maximal inhibitory concentration (IC50) in [6] (setting [12]), in data set [7], in data set [8] and in data set [9] was more than 50 µM in each case. The “CYP3A4 induction (in words)” value in data set [10] is recorded as “does not cause CYP3A4 induction up to at least a concentration of 50 μM”. The solubility was more than 346000 µg/mL in [11] (pH 2.0, crystalline material); 12300 µg/mL (≈ 39.2 mM) in data set [11] (pH 7.4, crystalline material); 11100 µg/mL (≈ 35.4 mM) in data set [11] (pH 9.0, crystalline material).

Turning to `C[C@@H](O)c1nc2cnc3[nH]ccc3c2n1[C@H]1CC[C@H](CC#N)CC1` [Example 644 of WO2011086053], the EC50 in data set [1] (ATP at Km (7 μM)) came to 0.34 nM; in [2], 3.34 nM; in [3] (ATP at Km (2 μM)), 13.1 nM; in data set [4] (ATP at Km (13 μM)), 3.32 nM; in data set [5], 0.123 µM. Further, the IC50 is more than 25 µM in data set [6] (setting [12]), more than 25 µM in data set [7], more than 25 µM in [8] and 10.8 µM in data set [9]. In addition, the “CYP3A4 inhibition (in words)” value in [9] is “weak CYP3A4 inhibition”. Besides, the “CYP3A4 induction (in words)” value in data set [10] was “causes CYP3A4 induction at a concentration of 10 μM”. Further, the solubility in [11] (pH 2.0, crystalline material) turned out to be 2470 µg/mL (≈ 7.64 mM); in data set [11] (pH 7.4, crystalline material), 136 µg/mL (≈ 0.421 mM); in [11] (pH 9.0, crystalline material), 9.9 µg/mL (≈ 0.0306 mM).

As for `C[C@@H](O)c1nc2cnc3[nH]ccc3c2n1[C@H]1CC[C@H](C#N)CC1` [Example 641 of WO2011086053], the EC50 in data set [1] came to 6.81 nM; in data set [2], 228 nM; in [3], 739 nM; in [4] it was 115 nM; in data set [5], 5.74 µM. In addition, in [1], the JAK2/JAK1 ratio worked out at 33. In addition, in data set [1], the JAK3/JAK1 ratio worked out at 109. In addition, the IC50 in data set [6] was more than 25 µM; in data set [7], more than 25 µM; in data set [8], more than 25 µM; in data set [9] it was 10.9 µM. In [9], the “CYP3A4 inhibition (in words)” value was “weak CYP3A4 inhibition”. Also, the “CYP3A4 induction (in words)” value in data set [10] was “causes CYP3A4 induction at a concentration of 20 μM and above”. In addition, the solubility in [11] (pH 2.0, crystalline material) came out at 90000 µg/mL (≈ 291 mM); in [11] (pH 7.4, crystalline material) it was 2260 µg/mL (≈ 7.31 mM); in [11] (pH 9.0, crystalline material) it was 2280 µg/mL (≈ 7.37 mM).

As a reminder, the EC50 is the concentration that produces a half-maximal response. Higher therefore signals weaker potency. As usually defined, the IC50 is the concentration at which inhibition is half-maximal. The solubility is the dissolved amount per volume that the medium holds. The low end stands for a poorly soluble substance, the high end for a readily soluble substance.
